Patent US20230234965A1, “N-LINKED MACROCYCLIC 4-(PYRAZOL-5-YL)-INDOLE DERIVATIVES AS INHIBITORS OF MCL-1” (Janssen Pharmaceutica NV, priority 2020, published 2023)

What was measured:
[1] = target: Myeloid Cell Leukemia 1 (Mcl-1) (Homo sapiens, UniProt Q07820); experiment: Terbium labeled Mcl-1 HTRF binding assay (displacement of Cy5-labeled BIM BH3 peptide); conditions: 25 pM Tb-Mcl-1, 8 nM Cy5 Bim peptide, [L] = 8 nM, Kd = 10 nM, 60 minutes at room temperature, read-out: Tb-MCL1 Ki
Method: Terbium labeled Myeloid Cell Leukemia 1(Mcl-1) homogeneous time-resolved fluorescence (HTRF) binding assay utilizing the BIM BH3 peptide (H2N-(C/Cy5Mal) WIAQELRRIGDEFN-OH) as the binding partner for Mcl-1.
This assay evaluated inhibition of the BH3 domain : Mcl-1 interaction by measuring the displacement of Cy5-labeled BIM BH3 peptide (H2N-(C/Cy5Mal) WIAQELRRIGDEFN-OH) in the HTRF assay format.
The following assay and stock buffers were prepared for use in the assay: (a) Stock buffer: 10 mM Tris-HCl, pH=7.5 + 150 mM NaCl, filtered, sterilized, and stored at 4° C.; and (b) 1X assay buffer, where the following ingredients were added fresh to stock buffer: 2 mM dithiothreitol (DTT), 0.0025% Tween-20, 0.1 mg/mL bovine serum albumin (BSA). The 1X Tb-Mcl-1 + Cy5 Bim peptide solution was prepared by diluting the protein stock solution using the 1X assay buffer (b) to 25 pM Tb-Mcl-1 and 8 nM Cy5 Bim peptide.
Using the Acoustic ECHO, 100 nL of 100x test compound(s) were dispensed into individual wells of a white 384-well Perkin Elmer Proxiplate, for a final compound concentration of 1x and final DMSO concentration of 1%. Inhibitor control and neutral control (NC, 100 nL of 100% DMSO) were stamped into columns 23 and 24 of assay plate, respectively. Into each well of the plate was then dispensed 10µL of the 1X Tb-Mcl-1 + Cy5 Bim peptide solution. The plate was centrifuged with a cover plate at 1000 rpm for 1 minute, then incubated for 60 minutes at room temperature with plates covered. The TR-FRET signal was read on an BMG PHERAStar FSX MicroPlate Reader at room temperature using the HTRF optic module (HTRF: excitation: 337 nm, light source: laser, emission A: 665 nm, emission B: 620 nm, integration start: 60 µs, integration time: 400 µs).
The BMG PHERAStar FSX MicroPlate Reader was used to measure fluorescence intensity at two emission wavelengths - 665 nm and 620 nm - and report relative fluorescence units (RFU) for both emissions, as well as a ratio of the emissions (665 nm/620 nm)*10,000. The RFU values were normalized to percent inhibition as follows: • % inhibition = (((NC - IC) - compound - IC)) / (NC - IC)) *100 where IC (inhibitor control, low signal) = mean signal of 1X Tb-MCl-1 + Cy5 Bim peptide+ inhibitor control or 100% inhibition of Mcl-1; NC (neutral control, high signal) = mean signal 1X Tb-MCl-1 + Cy5 Bim peptide with DMSO only or 0% inhibition An 11-point dose response curve was generated to determine IC50 values (using GenData) based on the following equation:
where Y = % inhibition in the presence of X inhibitor concentration; Top = 100% inhibition derived from the IC (mean signal of Mcl-1 + inhibitor control); Bottom = 0% inhibition derived from the NC (mean signal of Mcl-1 + DMSO); Hillslope = Hill coefficient; and IC50 = concentration of compound with 50% inhibition in relation to top/neutral control (NC).
In this assay [L] = 8 nM and Kd = 10 nM

[2] = tested on: MOLP-8 human multiple myeloma cell line; experiment: Caspase-Glo 3/7 apoptosis induction assay in MOLP-8 cells; assay type: cell-based; conditions: MOLP8 cells, 2 hours at 37° C.; 30 µM highest conc.; averaged over all runs on all batches
Description: MCL-1 is a regulator of apoptosis and is highly over-expressed in tumor cells that escape cell death. The assay evaluates the cellular potency of small-molecule compounds targeting regulators of the apoptosis pathway, primarily MCL-1, Bfl-1, Bcl-2, and other proteins of the Bcl-2 family. Protein-protein inhibitors disrupting the interaction of anti-apoptotic regulators with BH3-domain proteins initiate apoptosis.
The Caspase-Glo® 3/7 Assay is a luminescent assay that measures caspase-3 and -7 activities in purified enzyme preparations or cultures of adherent or suspension cells. The assay provides a proluminescent caspase-3/7 substrate, which contains the tetrapeptide sequence DEVD. This substrate is cleaved to release aminoluciferin, a substrate of luciferase used in the production of light. Addition of the single Caspase-Glo® 3/7 Reagent in an “add-mix-measure” format results in cell lysis, followed by caspase cleavage of the substrate and generation of a “glow-type” luminescent signal.
This assay uses the MOLP-8 human multiple myeloma cell line, which is sensitive to MCL-1 inhibition.
Cell cultures were maintained between 0.2 and 2.0 ×10^6 cells/mL. The cells were harvested by collection in 50 mL conical tubes. The cells were then pelleted at 500 g for 5 mins before removing supernatant and resuspension in fresh pre-warmed culture medium. The cells were counted and diluted as needed.
The assay reagent was prepared by transferring the buffer solution to the substrate vial and mixing. The solution may be stored for up to 1 week at 4° C. with negligible loss of signal.
Compounds were delivered in assay-ready plates (Proxiplate) and stored at -20° C. Assays always include 1 reference compound plate containing reference compounds. The plates were spotted with 40 nL of compounds (0.5% DMSO final in cells; serial dilution; 30 µM highest conc. ⅓ dilution, 10 doses, duplicates). The compounds were used at room temperature and 4 µL of pre-warmed media was added to all wells except column 2 and 23. The negative control was prepared by adding 1% DMSO in media. The positive control was prepared by adding the appropriate positive control compound in final concentration of 60 µM in media. The plate was prepared by adding 4 µL negative control to column 23, 4 µL positive control to column 2 and 4 µL cell suspension to all wells in the plate. The plate with cells was then incubated at 37° C. for 2 hours. The assay signal reagent is the Caspase-Glo solution described above, and 8 µL was added to all wells. The plates were then sealed and measured after 30 minutes.
The activity of a test compound was calculated as percent change in apoptosis induction as follows:
• %Effect (AC50) = 100 - ((sample-LC) / (HC-LC)) *100 • %Control = (sample /HC)* 100 • %Control min = ((sample-LC) / (HC-LC)) *100

Sequence of Myeloid Cell Leukemia 1 (Mcl-1) (Q07820 whole entry): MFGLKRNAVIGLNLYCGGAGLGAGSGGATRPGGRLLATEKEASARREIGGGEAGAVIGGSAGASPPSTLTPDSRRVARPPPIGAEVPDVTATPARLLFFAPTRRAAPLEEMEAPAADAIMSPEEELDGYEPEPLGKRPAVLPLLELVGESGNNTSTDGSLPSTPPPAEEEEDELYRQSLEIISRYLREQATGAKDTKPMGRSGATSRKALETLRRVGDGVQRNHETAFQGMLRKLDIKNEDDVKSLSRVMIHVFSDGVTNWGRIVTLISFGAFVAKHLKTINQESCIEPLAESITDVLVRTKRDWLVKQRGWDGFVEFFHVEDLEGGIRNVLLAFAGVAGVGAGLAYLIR

Structure (SMILES) | Ki [1] [nM] | AC50 [2] [nM]
Cc1nn2c(c1C)-c1c(Cl)ccc3c1c(C)c(C(=O)O)n3CCCOc1cc(cc3ccccc13)SCc1cnn(c1)CCC2 (single isomer, unassigned) [Compound 7] | 0.95 | 3180
Cc1nn2c(c1C)-c1c(Cl)ccc3c1c(C)c(C(=O)O)n3CCCOc1cc(cc3ccccc13)SCc1cn(nn1)CCC2 (single isomer, unassigned) [Compound 6] | 445 | > 30000
Cc1nn2c(c1C)-c1c(Cl)ccc3c1c(C)c(C(=O)O)n3CCCOc1cc(cc3cc(F)ccc13)CCc1cc(nn1C)CCC2 (single isomer, unassigned) [Compound 1] | 0.04 | 26
Cc1nn2c(c1C)-c1c(Cl)ccc3c1c(C)c(C(=O)O)n3CCCOc1cc(cc3cc(F)ccc13)CCc1cc(nn1C)CCC2 (single isomer, unassigned) [Compound 2] | 3.28 | 1930
Cc1nn2c(c1C)-c1c(Cl)ccc3c1c(C)c(C(=O)O)n3CCCOc1cc(cc3ccccc13)SCc1cn(nn1)CCC2 (single isomer, unassigned) [Compound 5] | 5.21 | 8180
Cc1nn2c(c1C)-c1c(Cl)ccc3c1c(C)c(C(=O)O)n3CCCOc1cc(cc3ccccc13)SCc1cc(nn1C)CCC2 (single isomer, unassigned) [Compound 4] | 1.57 | 4010
Cc1nn2c(c1C)-c1c(Cl)ccc3c1c(C)c(C(=O)O)n3CCCOc1cc(cc3ccccc13)SCc1cc(nn1C)CCC2 (single isomer, unassigned) [Compound 3] | 0.1 | 131
Cc1nn2c(c1C)-c1c(Cl)ccc3c1c(C)c(C(=O)O)n3CCCOc1cc(cc3ccccc13)SCc1cnn(c1)CCC2 (single isomer, unassigned) [Compound 8] | 422 | 27500
